Results on one compound are retold here after patent EP0698347B1, “Food composition containing reuterin” (BIOGAIA BIOLOGICS AB, priority 1987, dated 1988).

Assay [1] has as its system E. coli. Kind of assay: Inhibition of E. coli by supernatant fractions of L. reuteri grown on various substrates (Table 2). Type of assay: cell-based. The procedure:
(§1) Conditions under which reuterin is produced have been determined. Reuterin is not produced under aerobic conditions (atmospheric oxygen concentration) but under reduced oxygen tension. It is produced when L. reuteri is cultured anaerobically (or semi-anaerobically in still culture) in the MIC assay medium described above containing 20-500 mM glycerol or glyceraldehyde in place of glucose as the major carbon and energy source. […] Twenty other substances, including hexoses, hexitols, pentoses, pentitols, disaccharides and a variety of phosphorylated and non-phosphorylated C3-substances, were tested for their ability to support reuterin production. […] The medium, containing a substrate at 20 mM (C6 and C5 substrates) or 40 mM (C3 substrates) concentrations, was inoculated with 5 x 10^6 colony-forming units (CFU) per ml E. coli with and without L. reuteri. Only glycerol and glyceraldehyde yielded reuterin. Also, réuterin production from glycerol is inhibited when glucose or another growth substrate is included in the production medium. The results shown in Table 2 indicate the percent inhibition in viable count of a 6.7 x 10^7 CFU per ml E. coli inoculum by supernatant fractions of L. reuteri grown on various indicated substrates at 40 mM concentrations.

Another assay concerns spoilage pseudomonads. Kind of assay: Fish fillet storage: spoilage bacteria count (Table 8). Conditions: fish fillets dipped in treatment solution, 8°C for 4 days. The procedure: Lactobacillus reuteri plus glycerol constitutes a novel effective food preservation process. Evidence for this was obtained using storage of fish as a model system. This study was conducted as follows: Fish fillets (Herring, Clupea harengas) were dipped in the following treatment solution: • control: no treatment • glycerol: 250 mM glycerol solution • strain 1068: 250 mM glycerol solution containing 4x10^9 CFU per ml L. reuteri 1068 (a non-reuterin producing strain) • strain 1063: 250 mM glycerol solution containing 4x10^9 CFU per ml L. reuteri 1063 The fillets (2 parallel samples each) were kept in large Petri dishes at 8°C for 4 days in a refrigerator. The ammonia content and CFU of relevant bacteria (i.e., spoilage pseudomonads and added lactobacilli) were then analyzed to evaluate the shelf-life of the food product. […] L. reuteri 1068 did so to some extent but not enough to prevent spoilage which is generally indicated by a log 8.4 pseudomonad count. • (iii) the retarding effect of L. reuteri and glycerol on spoilage bacteria has a strong reducing effect on ammonia liberation. • (iv) a food preservative effect of L. reuteri plus glycerol is indicated for all kinds of food spoilage.

The test system of assay [2] is E. coli. Briefly: Co-culture of E. coli with and without L. reuteri 1063 on various substrates (Table 1). Type of assay: cell-based. The arrangement: % Inhibition: concentration or dose not given beside the values. Conditions: for E. coli (CFU/ml) after 6 hours: substrate 20 mM (C6, C5) or 40 mM (C3), inoculum 5 x 10^6 CFU per ml E. coli. The procedure: as §1
Assay [3] can be described thus: Antimicrobial activity of pure commercial preparations. As to conditions: concentrations as high as 0.125M. Format: cell-based. An excerpt:
Reuterin Is a Product of Glycerol Fermentation. Reuterin is a new product associated with the same type of heterolactic fermentation of glycerol that occurs in other Lactobacillus species. Reuterin can be isolated and identified as a product of glycerol fermentation by L. reuteri using HPLC.

Consider `OCC(O)CO` [Glycerol], for which the “% Inhibition” value was found to be 99.9% in the assay with E. coli [1] (percent inhibition in viable count of 6.7 x 10^7 CFU per ml E. coli inoculum by supernatant fraction, substrate 40 mM) and 99% in the assay with E. coli [2] (E. coli with versus without L. reuteri 1063 on the substrate, 6 hours). Moreover, the “Growth of E. coli presence of centrifuged culture medium CFU/ml after 6 hours” value in the assay with E. coli [1] (supernatant fraction of L. reuteri grown on the substrate at 40 mM, inoculum 6.7 x 10^7 CFU per ml E. coli) is given as 4.5x10^5 CFU/ml. Besides, in the assay with spoilage pseudomonads, the “Log CFU bacteria per g Pseudomonads (kings agar)” value amounted to 9.4 Log CFU bacteria per g. The “E. coli (CFU/ml) after 6 hours” value in the assay on E. coli [2] (Addition of L. reuteri 1063: +) is on record as 5.5x10^4 CFU/ml; in the assay on E. coli [2] (Addition of L. reuteri 1063: -), 1.2x10^7 CFU/ml. In addition, in assay [3], the antimicrobial activity entry is reported as “essentially devoid of antimicrobial activity”.
